Test: mn = molality of the nth substance listed, in mol/kg
Conditions: 101 kPa, Liquid; for mass density: Vibrating tube method; for speed of sound: Pulse-echo method

CNCC(=O)O [sarcosine] + O
Conditions	mass density, 288.15 K [kg/m3]	mass density, 293.15 K [kg/m3]	mass density, 298.15 K [kg/m3]	mass density, 303.15 K [kg/m3]	mass density, 308.15 K [kg/m3]	speed of sound, 298.15 K [m/s]
m1 = 0.05883	1000.7	999.78	998.598	997.176	995.552	1500.3
m1 = 0.1166	1002.25	1001.31	1000.12	998.68	997.042	1503.9
m1 = 0.1777	1003.88	1002.92	1001.7	1000.25	998.599	1507.7
m1 = 0.2363	1005.42	1004.43	1003.2	1001.74	1000.07	1511.3
m1 = 0.2987	1007.05	1006.03	1004.79	1003.31	1001.63	1515.2

C[N+](C)(C)CC(=O)[O-] [(trimethylammonio)acetate] + O
Conditions	mass density, 288.15 K [kg/m3]	mass density, 293.15 K [kg/m3]	mass density, 298.15 K [kg/m3]	mass density, 303.15 K [kg/m3]	mass density, 308.15 K [kg/m3]	speed of sound, 298.15 K [m/s]
m1 = 0.06226	1000.25	999.33	998.149	996.726	995.1	1501.3
m1 = 0.125	1001.4	1000.46	999.253	997.814	996.18	1505.9
m1 = 0.1884	1002.54	1001.57	1000.35	998.899	997.254	1510.5
m1 = 0.2532	1003.69	1002.7	1001.46	999.994	998.337	1515.2
m1 = 0.3185	1004.83	1003.83	1002.56	1001.08	999.42	1519.9

NCC(=O)O [2-aminoacetic acid] + O
Conditions	mass density, 288.15 K [kg/m3]	mass density, 293.15 K [kg/m3]	mass density, 298.15 K [kg/m3]	mass density, 303.15 K [kg/m3]	mass density, 308.15 K [kg/m3]	speed of sound, 298.15 K [m/s]
m1 = 0.06261	1001.13	1000.21	999.029	997.604	995.978	1499.9
m1 = 0.1199	1002.98	1002.03	1000.83	–	997.751	1502.8
m1 = 0.1769	1004.8	1003.84	1002.62	1001.15	999.494	1505.8
m1 = 0.2352	1006.65	1005.66	1004.42	1002.94	1001.28	1508.8
m1 = 0.2963	1008.56	1007.54	1006.29	1004.79	1003.12	1512

CN(C)CC(=O)O [(Dimethylamino)acetic acid] + O
Conditions	mass density, 288.15 K [kg/m3]	mass density, 293.15 K [kg/m3]	mass density, 298.15 K [kg/m3]	mass density, 303.15 K [kg/m3]	mass density, 308.15 K [kg/m3]	speed of sound, 298.15 K [m/s]
m1 = 0.05966	1000.46	999.537	998.354	996.925	995.303	1500.9
m1 = 0.119	1001.8	1000.85	999.646	998.203	996.574	1505.1
m1 = 0.1791	1003.14	1002.16	1000.94	999.477	997.836	1509.4
m1 = 0.2399	1004.48	1003.48	1002.23	1000.75	999.104	1513.6
m1 = 0.3007	1005.8	1004.78	1003.51	1002.02	1000.37	1517.9

C[N+](C)(C)[O-] [trimethylamine oxide] + O
Conditions	mass density, 288.15 K [kg/m3]	mass density, 293.15 K [kg/m3]	mass density, 298.15 K [kg/m3]	mass density, 303.15 K [kg/m3]	mass density, 308.15 K [kg/m3]	speed of sound, 298.15 K [m/s]
m1 = 0.0592	999.725	998.807	997.629	996.213	994.58	1500.9
m1 = 0.1182	1000.29	999.358	998.163	996.73	995.083	1505.1
m1 = 0.1768	1000.88	999.919	998.707	997.258	995.602	1509.2
m1 = 0.2361	1001.44	1000.47	999.234	997.769	996.09	1513.3
m1 = 0.2958	1002.09	1001.09	999.839	998.357	996.661	1517.4
